Our source for the IC50, IC90 and CC50 values is PubChem BioAssay AID1626 (SRMLSC, 2009).

Bounds are passed on as bounds.

This experiment deals with M. tuberculosis H37Rv growth inhibition. Put plainly: M. tuberculosis H37Rv growth inhibitors, H37Rv strain (AID 1626). Conditions: for IC90: measured here: IC90 against H37Rv; for CC50: measured here: Vero cell cytotoxicity.

For `CCOC(=O)C(Nc1ccc2ccccc2c1)C(=O)OCC`, the IC50 was 1.04 µM, the IC90 was found to be 2.86 µM and the cytotoxic concentration (CC50) is > 40 µM.
The corresponding values for `O=c1[nH][nH]c(-c2ccccc2O)c1C(C[N+](=O)[O-])c1ccc(Cl)cc1Cl` (configuration not stated) are 10.5 µM, 15 µM and > 40 µM.
With `COc1cc(OC)cc(C(=O)Nc2nc(-c3ccccc3)c(-c3ccccc3)o2)c1`, the IC50 was 0.322 µM, the IC90 amounted to 4.94 µM and the cytotoxic concentration (CC50) amounted to 30.9 µM.
With `CCc1nnc(NC(=O)c2cc3ccccc3oc2=O)s1`, the IC50 is < 0.195 µM and the IC90 worked out at 4.5 µM.
Turning to `O=C(COc1ccccc1[N+](=O)[O-])c1ccccc1`, the IC50 is 17 µM, the IC90 was > 100 µM and the CC50 turned out to be 30 µM.
As for `CCOC(=O)c1ccc(N=CC2=C(O)CC(C)(C)CC2=O)cc1`, the IC50 was 1.35 µM and the IC90 is > 100 µM.
`COc1cccc(OCCNC(=O)c2cc([N+](=O)[O-])cc([N+](=O)[O-])c2)c1`: the IC50 is < 0.195 µM and the IC90 was 0.747 µM.
For the compound `c1cc2c(cc1C1CCCCC1)c1c3n2CCCNC3CCC1` (configuration not stated), the concentration for half-maximal inhibition (IC50) is 6.06 µM, the IC90 came out at 6.63 µM and the CC50 turned out to be 6.99 µM.
For `CCCc1cc(-c2nc(-c3ccc(Br)cc3)cs2)ccn1`, the IC50 is 5.68 µM and the 90% effect concentration (IC90) stood at 10.4 µM.
For `CCOC(=O)c1cccc(NC(=O)CCc2nc(-c3ccc(C)cc3)no2)c1`, in that order: 30.1 µM and > 100 µM.
`O=C(c1ccc(F)cc1)C(CN1CCOCC1)c1ccccc1` (configuration not stated): the IC50 was 6.14 µM, the IC90 turned out to be 7.01 µM and the CC50 was 20.7 µM.
The corresponding values for `O=C(Nc1nc(-c2ccccn2)cs1)c1cc(Cl)ccc1[N+](=O)[O-]` are 0.87 µM, 2.24 µM and 2.24 µM.
For the compound `O=[N+]([O-])c1ccc(-c2nc(C(Cl)Cl)c3ccccc3n2)cc1`, the IC50 was < 0.195 µM, the IC90 is < 0.195 µM and the CC50 is < 0.078 µM.
`O=C(CSc1nnc(-c2ccccc2Br)o1)N1CCc2ccccc2C1`: the IC50 was 2.32 µM and the concentration for an effect of 90% (IC90) was 3.38 µM.
With `CN(C)CCNc1nc2sc3c(c2c(=O)n1CCc1ccccc1)CCCCC3`, the IC50 was 8.57 µM, the IC90 was determined as 11.1 µM and the CC50 is 12 µM.
The corresponding values for `c1ccc(-c2nc(NCc3ccco3)c3ccccc3n2)nc1` are 1.92 µM, 3 µM and 9.33 µM.
On to `O=C(OCC#CCSc1nnc(-c2ccccc2)o1)c1ccco1`, for which the IC50 is 1.16 µM and the IC90 turned out to be 3.94 µM.
Regarding `O=C(OCc1cccc2ccccc12)c1ccc2c(=O)[nH]c(CN3CCOCC3)nc2c1`, the IC50 was 0.478 µM, the concentration for an effect of 90% (IC90) was > 100 µM and the CC50 was > 40 µM.
As for `Cc1cc([N+](=O)[O-])ccc1NC(=O)CN1C2CCC1CC(NC(=O)NC13CC4CC(CC(C4)C1)C3)C2` (configuration not stated), the IC50 was 3.02 µM, the concentration for an effect of 90% (IC90) worked out at 5.59 µM and the CC50 is > 40 µM.
The corresponding values for `c1ccc(-c2nc(N3CCCCCC3)c3ccccc3n2)nc1` are 0.304 µM, 0.318 µM and 4.21 µM.
In the case of `c1ccc(CN2CCN(c3nc(NCc4ccco4)c4ccccc4n3)CC2)cc1`, the IC50 is 7.96 µM, the IC90 was determined as 10.3 µM and the CC50 was determined as 35.1 µM.
In the case of `Cc1ccc(-c2nc3c(cnn3-c3ccccc3)c(=O)o2)cc1`, the IC50 is 6.21 µM and the IC90 stood at 13.4 µM.
Regarding `COc1ccc(C)cc1N=Nc1ccc(O)c2ncccc12`, the IC50 was 31.8 µM, the IC90 was > 100 µM and the CC50 came to 2.01 µM.
`Cc1ccccc1C(=O)N1CCc2cc(-c3nc(NC(=O)Cc4ccc5c(c4)OCO5)sc3C)ccc21`: the cytotoxic concentration (CC50) was > 40 µM.
In the case of `CCCCOC(=O)Cn1c(-c2ccccc2)nc2ccccc2c1=O`, the IC50 is 7.75 µM and the IC90 turned out to be 18.5 µM.
Turning to `CCOC(=O)c1ccc(NC(=O)CSc2ccc(-c3cccnc3)nn2)cc1`, the IC50 was 29.1 µM, the 90% effect concentration (IC90) was > 100 µM and the CC50 is > 40 µM.
In the case of `CC1Cc2ccccc2N1C(=O)COC(=O)c1ccc(Br)o1` (configuration not stated), the IC50 is 16 µM and the IC90 is > 100 µM.
In the case of `CCC(=O)c1ccc(OCC(=O)Nc2ccc3nc(C)sc3c2)cc1`, the IC50 was 6.26 µM and the IC90 was > 100 µM.
On to `COc1ccc(C(C(=O)NC2CCCCC2)N(C(=O)c2sc(C)nc2C)c2ccccc2C)cc1` (configuration not stated), for which the IC50 was 6.96 µM, the IC90 turned out to be 11.4 µM and the CC50 is > 40 µM.
As for `COc1ccc(C(=O)CCNc2ccc(C)c(Cl)c2)cc1`, the IC50 was 58.9 µM and the IC90 was > 100 µM.
On to `Cc1cc2oc3c(c(=O)c2cc1C)C(c1cccc(Br)c1)N(Cc1ccco1)C3=O` (configuration not stated), for which the IC50 was 5.92 µM, the concentration for an effect of 90% (IC90) is > 100 µM and the CC50 is 13.9 µM.
The corresponding values for `O=C(Nc1nnc(SCc2ccc(F)cc2)s1)c1ccccn1` are 0.342 µM, 5.05 µM and 4.74 µM.
For the compound `Cc1cccc(N2CCN(C(=O)c3ccc(CNc4c(N5CCC(C)CC5)c(=O)c4=O)cc3)CC2C)c1` (configuration not stated), the IC50 was 15.8 µM, the IC90 amounted to 22.2 µM and the CC50 was > 40 µM.
Take `COc1ccc2[nH]c(=O)c(CN(C(=O)NC3CCCCC3)C3CCCCC3)cc2c1`: the IC90 was > 100 µM and the CC50 is > 40 µM.
For the compound `COC(=O)CSc1ccc(C#N)c(SCC(=O)OC)c1`, the IC50 is 3.27 µM and the concentration for an effect of 90% (IC90) was found to be 10.4 µM.
With `O=C(Nc1ccc(C(F)(F)F)cc1)N1CCN(c2ccnc3cc(Cl)ccc23)CC1`, the IC50 was 8.62 µM, the IC90 is 15.4 µM and the CC50 came out at 8.22 µM.
On to `CC(C)c1ccc(C2C3=C(CC(C)(C)CC3=O)NC3=C2C(=O)c2ccccc23)cc1` (configuration not stated), for which the IC50 is 50.6 µM, the IC90 is > 100 µM and the half-maximal cytotoxic concentration (CC50) was > 40 µM.
The corresponding values for `COc1ccc(CCNC(=O)NC23CC4CC(CC(C4)C2)C3)cc1` are 12.9 µM, > 100 µM and > 40 µM.
In the case of `O=C(COC(=O)C1COc2ccccc2O1)NC(=O)Nc1ccc2c(c1)OCCO2` (configuration not stated), the IC90 is > 100 µM.
On to `Fc1ccc(Oc2nc(-c3ccccn3)nc3ccccc23)cc1`, for which the IC50 was 1.96 µM, the IC90 stood at 11.2 µM and the CC50 was > 40 µM.
For the compound `Cc1ccc(C)c(SCC(=O)OC/C(O)=C(\C#N)c2nc3ccccc3[nH]2)c1`, the IC50 is 3.09 µM, the IC90 worked out at 4.9 µM and the CC50 is > 40 µM.
Take `O=C1Nc2ccccc2/C1=N\N=C\C1=C(N2CCOCC2)C(=C\c2ccccc2)/CC1`: the IC50 is 1.29 µM, the IC90 came to 1.86 µM and the CC50 was > 40 µM.
For `Cc1nn(-c2ccc([N+](=O)[O-])cc2)c2c1C(c1ccc(OC(F)F)cc1)N1C(=N2)C(=O)Nc2ccccc21` (configuration not stated), in that order: 4.66 µM, > 100 µM and > 40 µM.
As to `CCOC(=O)Cn1c(-c2ccccc2)ccc(C#N)c1=O`, the IC50 is 4 µM and the IC90 is > 100 µM.
The corresponding values for `CCOc1ccc(N/C(C)=C\C(=O)c2ccc3c(c2)OCCO3)cc1` are 5.85 µM and > 100 µM.
With `COc1ccc(C(=O)C(CN2CCOCC2)c2ccccc2)cc1F` (configuration not stated), the IC50 is 11.5 µM, the IC90 is 12.5 µM and the CC50 worked out at 16.1 µM.
For `O=C(Nc1ccc(N2CCOCC2)c(Cl)c1)c1ccc([N+](=O)[O-])o1`, in that order: 7.54 µM, 11.3 µM and 3.3 µM.
On to `Cc1oc2c(c1C(=O)Nc1cccc3ccccc13)CCCC2`, for which the IC50 is 3.58 µM and the IC90 was found to be 7.71 µM.
As to `O=C1C(=O)c2ccc(-c3ccccc3)cc2-c2ccccc21`, the 50% inhibitory concentration (IC50) was 1.47 µM, the IC90 was 1.66 µM and the CC50 was 3.09 µM.
Consider `O=C(Nc1nc(-c2ccncc2)cs1)C1c2ccccc2Oc2ccccc21`, for which the 50% cytotoxic concentration (CC50) is > 40 µM.
Consider `COc1cc(/C=C/c2ccc3c([N+](=O)[O-])cccc3n2)ccc1OCC(=O)O`, for which the IC50 is 2.72 µM and the IC90 was 6.3 µM.
The corresponding values for `O=[N+]([O-])c1ccc(O)c(C=Nc2ccc3oc(Cc4ccc(Cl)cc4)nc3c2)c1` are 26.4 µM and > 100 µM.
As to `CSc1ccc2c(c1)C(N1CCN(C)CC1)Cc1ccccc1S2` (configuration not stated), the IC50 is 8.54 µM, the concentration for an effect of 90% (IC90) amounted to 10.9 µM and the half-maximal cytotoxic concentration (CC50) turned out to be 20.9 µM.
Consider `O=C1CC(=C(c2ccccc2)c2ccccc2)C(=O)N1CCCCN1CCN(c2cccc(Cl)c2)CC1`, for which the concentration for half-maximal inhibition (IC50) is 4.47 µM, the IC90 was 6.35 µM and the CC50 was > 40 µM.
The corresponding values for `O=C(c1ccc(COc2ccc(Cl)cc2)o1)N1CCN(Cc2ccc3c(c2)OCO3)CC1` are 10.8 µM, 21.9 µM and > 40 µM.
Regarding `CCOC(=O)CSc1nnc(-c2cc(OC)c(OC)c(OC)c2)o1`, the IC50 was 1.62 µM and the IC90 was 4.38 µM.
With `CCOC(=O)c1ccc(NC(=O)c2n[nH]c(=O)c3ccccc23)cc1`, the IC90 is > 100 µM.
As to `Cc1c2ccncc2c(C)c2c1[nH]c1ccccc12`, the concentration for half-maximal inhibition (IC50) is 0.465 µM, the IC90 turned out to be 0.667 µM and the CC50 amounted to 0.793 µM.
With `COc1ccc(-c2csc(NC(C)c3nc4cc(Cl)c(N5CCCCC5)cc4n3CCCO)n2)cc1` (configuration not stated), the IC50 was 12.7 µM, the concentration for an effect of 90% (IC90) is > 100 µM and the CC50 is > 40 µM.
For `CN(C)c1ccc(C(=O)Nc2nnc(-c3ccc(Cl)cc3)o2)cc1`, in that order: 0.895 µM, > 100 µM and > 40 µM.
The corresponding values for `O=C(Nc1ccc2c(c1)OCCO2)c1cccc2nc3ccccc3nc12` are < 0.195 µM, 2.17 µM and > 40 µM.
For `Cc1ccc(-c2nnc3sc(C4COc5ccccc5O4)nn23)cc1` (configuration not stated), the IC50 was 4.77 µM and the IC90 was > 100 µM.
